Reference: US8158360B2, “Effects of inhibitors of FGFR3 on gene transcription” (priority 2005, dated 2012)

Experiments:
Experiment in all cases: Sensitivity of multiple myeloma cell line to CHIR-258 treatment
Assay type in all cases: cell-based, human
KMS11 = settings: KMS11: Ras WT, FGFR3Y373C mutant
KMS18 = settings: KMS18: Ras WT, FGFR3G384D mutant
H929 = settings: H929: N13 Ras mutant, FGFR3 wild-type (WT)
UTMC2 = settings: UTMC2: Ras WT, FGFR3WT
U266 = settings: U266: Ras WT, FGFR3 negative

With `CN1CCN(c2ccc3nc(-c4c(N)c5c(F)cccc5[nH]c4=O)[nH]c3c2)CC1` [CHIR-258, 4-Amino-5-fluoro-3-[6-(4-methylpiperazin-1-yl)-1H-benzimidazol-2-yl]quinolin-2(1H)-one] the “sensitivity of cell line to treatment” value (KMS11) was “sensitive”, the “sensitivity of cell line to treatment” value (KMS18) was “sensitive” and the “sensitivity of cell line to treatment” value (H929) was “resistant”. For the same compound, the “sensitivity of cell line to treatment” value (UTMC2) was “resistant” and the “sensitivity of cell line to treatment” value (U266) was “resistant”.
